In patent US7479478B2, “Human parathyroid hormone modifications, preparation and use” (The General Hospital Corporation, priority 1998, dated 2009):
No end group written: not given here.

Legend:
human PTH-1 receptors = biological target: T1, human PTH-1 receptors (Homo sapiens, UniProt Q03431); experiment: Radioligand competition binding with 125I-[Nle8,21,Tyr34]rat PTH-(1-34) in HKRK B7 cells; conditions: read-out: apparent IC50 for binding
T1 construct: expressed in transfected cells
T1 sequence (Q03431 27-593): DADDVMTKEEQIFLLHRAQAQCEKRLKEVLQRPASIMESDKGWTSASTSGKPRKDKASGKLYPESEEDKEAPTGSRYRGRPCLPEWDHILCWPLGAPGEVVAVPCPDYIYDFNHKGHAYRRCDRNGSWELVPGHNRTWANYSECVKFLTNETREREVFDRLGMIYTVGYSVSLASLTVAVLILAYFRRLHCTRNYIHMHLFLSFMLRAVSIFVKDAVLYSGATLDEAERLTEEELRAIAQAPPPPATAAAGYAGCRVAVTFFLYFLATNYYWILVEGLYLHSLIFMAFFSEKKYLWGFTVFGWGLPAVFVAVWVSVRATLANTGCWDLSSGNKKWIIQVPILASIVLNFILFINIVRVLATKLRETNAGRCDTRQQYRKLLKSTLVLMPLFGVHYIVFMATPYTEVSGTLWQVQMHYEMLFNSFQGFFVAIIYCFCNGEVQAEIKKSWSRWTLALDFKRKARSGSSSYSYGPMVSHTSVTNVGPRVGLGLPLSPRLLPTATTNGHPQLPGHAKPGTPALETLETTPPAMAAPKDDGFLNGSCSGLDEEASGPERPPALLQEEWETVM
Protocol: HKRK B7 or EW5 cells (32), subclones of LLC-PKI renal epithelial cells that stably express human or rat PTH-1 receptors (950,000 and 320,000 receptors/cell, respectively), were maintained under 5% CO2 in air in Dulbecco's modified essential medium containing 7% fetal bovine serum (FBS) and 1% penicillin/streptomycin (GIBCO-BRL, Grand Island, N.Y.). HEK-293 and COS-7 cells were cultured similarly, except that 10% FBS was used in the medium. Cells were seeded into 24-well plates two days before assay at a density of 2-2.5×10^5 cells/well (HKRK B7 or EW 5 cells) or 6×10^5 cells/well (in 6-well plates) (HEK-293 cells). In experiments involving HEK-293 cells, DNA transfections were performed 24 hr after plating and inositol radiolabel was added 24 hr thereafter (see below). COS-7 cell transfections were performed as previously described (Gardella, T. J., et al., Endocrinology 132(5):2024-2030 (1993)) Radioligand competition binding assays were performed at 2-8° C. for 6 hr using ^125I-[Nle^8,21,[…]]rat PTH-(1-34) (100,000 cpm/well) in the presence or absence of non-radioactive hPTH-(1-34) analogs. Cell layers were washed three times before solubilization for determination of cell-associated radioactivity.

membrane-bound PKCs = conditions: osteoblast-like ROS 17/2 cells; Neugebauer et al. 1995; cited from earlier work

Substance: SVSEIQLMHNLGKHLNSMERVEWLRKKL-NH2 [hPTH-(1-28)]
- IC50 (human PTH-1 receptors): 1 µM
- stimulation of activity of membrane-bound PKCs (membrane-bound PKCs): incapable of stimulating
